Legend:
[1] = Particle size distribution using a Malvern instrument; format: physicochemical
Source text: The D10, D50, and D90 values are useful ways for indicating a particle size distribution. D90 is the size value where at least 90 volume percent of the particles have a size smaller than the said value; Likewise D10 refers to 10 volume percent of the particles having a size smaller than the said value. D50 refers to at least 50 volume percent of the particles having a size smaller than the said value and D[4,3] value refers to the mean particle size. Methods for determining D10, D50 D90 and D[4,3] include laser light diffraction, such as using equipment sold by Malvern Instruments Ltd., Malvern, Worcestershire, United Kingdom. Other types of equipment may be used, as is known in the art.
The premixes of Example 1 and Example 2 are analyzed for particle size distribution using a Malvern instrument and the results are below: […]

[2] = Glass transition temperature (Tg) by differential scanning calorimetry; format: physicochemical
Experimental: The glass transition temperature (Tg) is determined for premixes using differential scanning calorimetry and the results are below:
The glass transition temperatures of the premix compositions are greater than that of dexlansoprazole (amorphous).

Which results are given for `Cc1c(OCC(F)(F)F)ccnc1C[S@@+]([O-])c1nc2ccccc2[nH]1` [Amorphous dexlansoprazole, (+)-2-[(R)-{[3-methyl-4-(2,2,2-trifluoroethoxy)pyridin-2-yl]methyl}sulfinyl]-1H-benzimidazole]?
D10 [1]: 9.061 μm; D50 [1]: 22.182 μm; D90 [1]: 42.598 μm; Tg (glass transition temperature) [2]: 55.48 °C

From patent US20120231073A1, “DEXLANSOPRAZOLE COMPOSITIONS” (DR. REDDY'S LABORATORIES, INC., priority 2008, published 2012)
